Experimental data reported in publication PMC7463714, “Design and Synthesis of Novel Hybrid 8-Hydroxy Quinoline-Indole Derivatives as Inhibitors of Aβ Self-Aggregation and Metal Chelation-Induced Aβ Aggregation” (Molecules, 2020).
Entries after “also recorded” stand apart in the source; their conditions may differ.

Tests used:
Aβ1–42 = target: T1, Aβ1–42 (Homo sapiens, UniProt P05067); test: Self-induced Aβ1–42 aggregation, thioflavin T (ThT) fluorescence assay; assay type: biochemical
T1 construct: Aβ1–42 (Adooq Bioscience, CA, USA); purchased Adooq Bioscience
Description: The novel hybrid 8-hydroxyquinoline-indole derivatives, 7a–7e, 12a, 12b, and the (8-hydroxyquinolin-2-yl)methyl-4-(1H-indole-2-carbonyl)piperazine-1-carboxylate analogs 18a–18h were evaluated for inhibitory activity against self-induced Aβ1–42 aggregation at five different concentrations (0.3, 1.0, 3, 9 and 27 µM) with 25 µM Aβ1–42, utilizing a thioflavin T (ThT) fluorescence assay with clioquinol, 1 as a positive control (Figure 3). In the absence of inhibitor, the self-induced Aβ1–42 aggregation ThT fluorescence was recorded as 115 arbitrary units (a.u.). The self-induced Aβ1–42 aggregation results for all the above synthetic analogs from the ThT fluorescence assay are shown in Table 1. […] The thioflavin T (ThT)-fluorescence assay was used to measure the inhibition of Aβ aggregation. Aβ1–42 (Adooq Bioscience, CA, USA) was pretreated with 1 mL of hexafluoroisopropanol (HFIP) to afford a stock solution, which was aliquoted into small samples. The solvent was evaporated at room temperature, and samples were stored at −80 °C. For Aβ1–42 aggregation inhibition experiments, phosphate buffer (pH 7.4) was added to the Aβ stock solution to afford a 50 µM concentration before use. A mixture of the Aβ1–42 peptide (10 µL, 25 µM final concentration) with or without the test compound (10 µL; 0.3, 1.0, 3, 9, and 27 µM) was incubated at 37 °C for 48 h. Blanks using phosphate buffer (pH 7.4) instead of Aβ, with or without test compound, were also assessed. Then 50 mM glycine-NaOH buffer (pH 8.0) containing ThT (5 µM) was added to 20 µL of the sample to afford a final volume of 200 µL. The fluorescence intensities were recorded (excitation, 450 nm; emission, 485 nm). The fluorescence intensities were background corrected to the no enzyme control and 100% of intensity reflected no inhibition of aggregation. To obtain the normalized amyloid aggregation inhibition relative to the control group, the amyloid aggregation/cell values were further divided by the total amyloid fluorescence of the control group. Using GraphPad Prism, the amyloid aggregation values (relative to control group) were entered along the corresponding concentrations for the triplicates and then a log transformation was obtained. Using the dose–response simulation module in GraphPad Prism, nonlinear regression fit (curve) was then generated for each small molecule with various concentrations used. Curves were then compared to determine if they were statistically different, by performing the best-fit values of selected unshared parameters between data sets and extra sum-of-squares F test, allowing for selection of the simpler model unless the P value was less than 0.05. The logEC50 output parameter was then selected to obtain the EC50 for each of the dose–response curves for the small molecules.

[1] = Metal-chelation study by UV-vis spectroscopy and Job's method; assay type: physicochemical; settings: compound 50 µM, HEPES buffer pH 7.4, 30 min, shift from 252 nm
Description: Furthermore, the stoichiometry of formation of metal complexes 18f-Cu^2+ and 18f-Zn^2+ was also determined by using Job’s method (Figure 6). The […] shown in Figure 6A,B at 0.6 and 0.5 imply a stoichiometry of 1.5:1 for 18f-Cu^2+ and 1:1 for 18f-Zn^2+.
The chelating studies were performed with a UV–vis spectrophotometer. The absorption spectra of test compound (50 μM, final concentration) alone or in the presence of CuSO4, FeSO4, or ZnCl2 (50 μM, final concentration) in buffer (20 mM HEPES, 150 mM NaCl, pH 7.4) were incubated for 30 min and then recorded at room temperature, respectively. For the stoichiometry of the test compound–Cu^2+ complex or the test compound–Zn^2+ complex, a fixed amount of test compound (50 μM) was mixed with increasing amounts of copper ion or Zn ion (0–100 μM), and the UV–vis difference spectra were analyzed to determine the ratio of ligand/metal ion in the complex.

HEK-tau cells = test: Protein aggregation in HEK-tau cells (ThT staining); assay type: cell-based, Human; settings: 1 µM, 48 h, 37 °C; compared to clioquinol (1)
Description: In our study, we have shown that restoring metal homeostasis by treatment with hybrid 8-hydroxyquinoline-indole analogs reduces tau- and amyloid-mediated protein aggregation, and their associated neurotoxicity. Analogs 7a–7d, 18c–18f, and 18h were evaluated for their ability to reduce protein aggregation in HEK-tau cells. HEK-tau cells were exposed to the above Aβ1–42 aggregation inhibitors and parent drug clioquinol (1) at 1 µM for 48 h at 37 °C. Cells were assessed for amyloid deposits by staining with 0.1% w/v thioflavin T, counterstaining nuclei with DAPI, and mean ThT fluorescence signal per nucleus was calculated over multiple fields. All the analogs reduced fluorescence intensity (indicative of protein aggregation) by 26–62% (P < 0.001 by 2-tailed t-test).
(§1) Human Embryonic Kidney cells that overexpress tau protein (HEK-tau) cells or SY5Y neuroblastoma cells that express a familial-AD mutant of amyloid precursor protein (SY5Y-APPSw cells) were each seeded in 96-well plates at 8000 cells per well. After 24 h, cells were supplemented with test compound at 1 µM after diluting with medium. Vehicle only control was also included for each experiment. The cells were cultured for an additional 48 h at 37 °C. Both the cell lines were able to reach approximately 80% confluency in 48 h. Cells were assessed for amyloid deposits by staining with 0.1% w/v ThT, counterstaining nuclei with DAPI, and calculating mean ThT fluorescence signal per nucleus over multiple fields.

SY5Y-APPSw cells = test: Protein aggregation in SY5Y-APPSw cells (ThT staining); assay type: cell-based; settings: 1 µM, 48 h, 37 °C; compared to clioquinol (1)
Description: In another study compounds 7a–7d, 18c–18f, and 18h were also evaluated for their ability to reduce protein aggregation in SY5Y-APPSw cells. SY5Y-APPSw cells were exposed to the above protein aggregation inhibitors and parent compound 1 at 1 µM for 48 h at 37 °C. Cells were assessed for amyloid deposits by staining with 0.1% w/v ThT, counterstaining nuclei with DAPI, and mean ThT fluorescence signal per nucleus calculated over multiple fields. All the analogs reduced fluorescence intensity (indicative of protein aggregation) by 22–67% (P < 0.001 by 2-tailed t-test). […] Thioflavin-T fluorescence assays for in vitro amyloid aggregation and cell culture models of amyloid aggregation overlap but are not identical. This is due to the fact that thioflavin in cell-culture stains not just amyloid aggregates but also other amyloid-like fibrillar structures. Another important difference is that in vitro aggregation is assessed after 24 h, whereas aggregation in cell culture is assessed after 48 h.
as §1

T1 sequence (P05067 672-713 limits assumed): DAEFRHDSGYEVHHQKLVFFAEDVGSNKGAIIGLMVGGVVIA

EC50 (Aβ1–42; 25 µM Aβ1–42, compound 0.3-27 µM, 37 °C, 48 h, ThT fluorescence, read-out: EC50 against self-induced Aβ1–42 aggregation): 1.08 µM
improvement in inhibitory potency over clioquinol (1), Aβ1–42 self-aggregation (Aβ1–42; relative to 1): 10 fold
maximum absorption wavelength in the presence of Cu^2+ ([1]; CuSO4 50 µM): 274 nm
maximum absorption wavelength in the presence of Fe^2+ ([1]; FeSO4 50 µM): 255 nm
maximum absorption wavelength in the presence of Zn^2+ ([1]; ZnCl2 50 µM): 269 nm
Structure (SMILES): COc1ccc2[nH]c(C(=O)N3CCN(C(=O)OCc4ccc5c(Cl)cc(Cl)c(O)c5n4)CC3)cc2c1 [Compound 18f, (5,7-Dichloro-8-hydroxyquinolin-2-yl)methyl-4-(5-methoxy-1H-indole-2-carbonyl)piperazine-1-carboxylate]
protein aggregation inhibition in HEK-tau cells, result in words (HEK-tau cells): most effective; also recorded: effective in reducing protein aggregation
protein aggregation inhibition in SY5Y-APPSw cells, result in words (SY5Y-APPSw cells): effective in reducing protein aggregation
